Values after ≈ are worked out from the molar mass of the structure shown.

Results on 38 molecules are retold here after patent US6462055B2, “Alpha-methylbenzyl-containing thiourea inhibitors of herpes viruses containing a phenylenediamine group” (Wyeth, priority 1998, dated 2002).

One test deals with VZV strain Ellen. In words: VZV Antiviral (ELISA) Assay in human foreskin fibroblast cells. It is filed as cell-based, varicella-zoster virus. As to conditions: for inhibition at 10 µg/mL / IC50: Human alphaherpesvirus 3, Fibroblast; for inhibition at 10 µg/mL: read-out: % inhibition 10 ug/ml VZV, 10 ug/ml; for IC50: read-out: IC50 (ug/ml) VZV. The protocol: For the generation of stock VZV to be used in the assay, VZV strain Ellen (ATCC #VR-1367) is used to infect human foreskin fibroblast (HFF) cells at low multiplicity (less than 0.1) and incubated overnight at 37° C. in 5% CO2. After the overnight incubation, the mixture of uninfected and VZV-infected HFF infected cells are then harvested and added to each well of 96-well plates (3.5×10^4 cells in 100 μl DMEM supplemented with 2% FBS) which contain test compound or the reference standard drug control (in 100 μl DMEM supplemented with 2% FBS per well). These cells are incubated for three days at 37° C. in 5% CO2, then fixed for ELISA assay. The primary antibody is murine anti-VZV glycoprotein II monoclonal antibody (Applied Biosystems, Inc. #13-145-100) and the secondary antibody is goat anti-mouse IgG linked to β-galactosidase. Thus the extent of viral replication is determined by assessing β-galactosidase activity by quantifying the generation of the 4-methyl umbelliferone fluorescent cleavage product after addition of the methyl umbelliferyl-β-D-galactoside (Sigma #M1633) substrate on a microfluorimeter (365 nm for excitation and 450 nm for emission). Antiviral activity (IC50) of the test compound is determined by comparing the flourescence obtained in absence of compound to that obtained in the presence of compound.

A further test has as its system HSV-1. In words: HSV Antiviral (ELISA) Assay in Vero cells. It is filed as cell-based, herpes simplex virus type 1. As to conditions: HSV-1, Vero cells; for IC50: Human alphaherpesvirus 1, read-out: IC50 (ug/ml) HSV. The method, then: Vero cells (ATCC #CCL-81) are plated on 96-well tissue culture plates at 3.5×10^4 cells per 100 μl tissue culture DMEM (Dulbeccos modified Eagle media) supplemented with 2% fetal bovine serum (FBS) in each well. After overnight incubation @ 37° C. (in 5% CO2) and 30 minutes prior to infection with HSV-1 (multiplicity of infection equal to 0.006), cells are either untreated, or treated with test compound (multiple concentrations) or reference standard drug control. After approximately 24 hours post-infection incubation @ 37° C. (in 5% CO2), cells are fixed for ELISA assay. The primary antibody is murine anti-HSV glycoprotein D monoclonal primary antibody and the secondary antibody is goat anti-mouse IgG linked to β-galactosidase. Thus the extent of viral replication is determined by assessing β-galactosidase activity by quantifying the generation of the 4-methyl umbelliferone fluorescent cleavage product after addition of the methyl umbelliferyl-β-D-galactoside (Sigma #M1633) substrate on a microfluorimeter (365 nm for excitation and 450 nm for emission). Antiviral activity (IC50) of the test compound is determined by comparing the flourescence obtained in absence of compound to that obtained in the presence of compound.

Consider `COc1ccc(NC(=S)Nc2ccc(NC(=O)c3ccc(F)cc3)cc2)cc1Cl` [Example 823, N-{4-[3-(3-Chloro-4-methoxy-phenyl)-thioureido]-phenyl}-4-fluoro-benzamide], for which, in the test with VZV strain Ellen, the inhibition at 10 µg/mL is 7% and the IC50 was over 10 µg/mL. For `COc1ccc(NC(=S)Nc2ccc(NC(=O)c3cccc(F)c3)cc2)cc1Cl` [Example 822, N-{4-[3-(3-Chloro-4-methoxy-phenyl)-thioureido]-phenyl}-3-fluoro-benzamide] the same measures were 0% and over 10 µg/mL. As for `CC(NC(=S)Nc1ccc(NC(=O)c2ccccc2F)cc1)c1cccc(C(F)(F)F)c1` (stereo not drawn) [Example 786], the IC50 was over 7.5 µg/mL with VZV strain Ellen and over 10 µg/mL with HSV-1. For `CC(NC(=S)Nc1ccc(NC(=O)c2cccc(C#N)c2)cc1)c1ccc(F)cc1` (stereo not drawn) [Example 1020, 3-Cyano-N-(4-{3-[1-(4-fluoro-phenyl)-ethyl]-thioureido}-phenyl)-benzamide] the same measures were 6.3 µg/mL (≈ 15.1 µM) and over 10 µg/mL.

`CC(NC(=S)Nc1ccc(NC(=O)c2cc3ccccc3o2)cc1)c1ccc(C#N)cc1` (stereo not drawn) [Example 983, Benzofuran-2-carboxylic acid (4-{3-[1-(4-cyano-phenyl)-ethyl]-thioureido}-phenyl)-amide]: the IC50 in the test on VZV strain Ellen was 0.6 µg/mL (≈ 1.36 µM); in the test on HSV-1 it was over 10 µg/mL. For `O=C(Nc1ccc(NC(=S)NCc2cc(F)cc(F)c2)cc1)c1ccccc1F` [Example 580], the “IC50 (ug/ml) VZV” value in the test with VZV strain Ellen was over 10 µg/mL. `O=C(Nc1ccc(NC(=S)Nc2cccc(Cl)c2Cl)cc1)c1ccccc1F` [Example 927, N-{4-[3-(2,3-Dichloro-phenyl)-thioureido]-phenyl}-2-fluoro-benzamide]: the inhibition at 10 µg/mL in the test with VZV strain Ellen was found to be 1%. In addition, the IC50 in the test with HSV-1 came to 5 µg/mL (≈ 11.5 µM).

In the case of `CC(NC(=S)Nc1ccc(NC(=O)c2ccnc3ccccc23)cc1)c1ccc(F)cc1` (stereo not drawn) [Example 989, Quinoline-4-carboxylic acid (4-{3-[1-(4-fluoro-phenyl)-ethyl]-thioureido}-phenyl)-amide], the IC50 in the test with VZV strain Ellen is 3 µg/mL (≈ 6.75 µM). On the same count and under the same terms, next, `C[C@H](NC(=S)Nc1ccc(NC(=O)c2nccc3ccccc23)cc1)c1ccc(Cl)cc1` [Example 1109]: 0.03 µg/mL (≈ 0.0651 µM). With `COc1ccc(NC(=S)Nc2ccc(NC(=O)c3ccccc3)cc2)cc1Cl` [Example 817, N-{4-[3-(3-Chloro-4-methoxy-phenyl)-thioureido]-phenyl}-benzamide], in the test on VZV strain Ellen, the inhibition at 10 µg/mL came out at 66% and the IC50 was determined as 12 µg/mL (≈ 29.1 µM). Besides, the IC50 in the test on HSV-1 worked out at 1 µg/mL (≈ 2.43 µM). For `O=C(Nc1ccc(NC(=S)Nc2ccc(I)c(Cl)c2)cc1)c1ccccc1F` [Example 916, N-{4-[3-(3-Chloro-4-iodo-phenyl)-thioureido]-phenyl}-2-fluoro-benzamide], in the test with VZV strain Ellen, the inhibition at 10 µg/mL amounted to 30% and the IC50 is over 10 µg/mL. Regarding `CC(NC(=S)Nc1ccc(NC(=O)c2nccc3ccccc23)cc1)c1ccc(C#N)cc1` (stereo not drawn) [Example 979, Isoquinoline-1-carboxylic acid (4-{3-[1-(4-cyano-phenyl)-ethyl]-thioureido}-phenyl)-amide], the IC50 in the test on VZV strain Ellen was 0.13 µg/mL (≈ 0.288 µM); in the test on HSV-1, over 10 µg/mL.

For `COc1cc(OC)c(NC(=S)Nc2ccc(NC(=O)c3ccccc3F)cc2)cc1Br` [Example 827, N-{4-[3-(5-Bromo-2,4-dimethoxy-phenyl)-thioureido]-phenyl}-2-fluoro-benzamide], the inhibition at 10 µg/mL in the test on VZV strain Ellen is 70%. The IC50 in the test on VZV strain Ellen stood at 3.5 µg/mL (≈ 6.94 µM); with HSV-1, 0.2 µg/mL (≈ 0.397 µM). With `COc1cc(OC)c(NC(=S)Nc2ccc(NC(=O)c3cccc(NS(C)(=O)=O)c3)cc2)cc1Cl` [Example 137], in the test with VZV strain Ellen, the “IC50 (ug/ml) VZV” value is over 15 µg/mL and the “% inhibition 10 ug/ml VZV” value stood at 72%. In the case of `COc1ccc(NC(=S)Nc2ccc(NC(=O)c3ccccc3F)cc2)cc1I` [Example 810], in the test with VZV strain Ellen, the IC50 was over 7.5 µg/mL. On to `O=C(Nc1ccc(NC(=S)Nc2ccc(C(F)(F)F)c(Cl)c2)cc1)c1ccccc1F` [Example 911, N-{4-[3-(3-Chloro-4-trifluoromethyl-phenyl)-thioureido]-phenyl}-2-fluoro-benzamide], for which, in the test with VZV strain Ellen, the inhibition at 10 µg/mL turned out to be 38% and the IC50 was over 10 µg/mL. With `CC(NC(=S)Nc1ccc(NC(=O)c2ccccc2I)cc1)c1ccc(F)cc1` (stereo not drawn) [Example 812], the IC50 in the test with VZV strain Ellen was 3.4 µg/mL (≈ 6.55 µM). The same measure, in the same setting: for `COc1cc(OCC(F)(F)F)ccc1NC(=S)Nc1ccc(NC(=O)c2ccccc2F)cc1` [Example 1006, 2-Fluoro-N-(4-{3-[2-methoxy-4-(2,2,2-trifluoro-ethoxy)-phenyl]-thioureido}-phenyl)-benzamide] the value was 11 µg/mL (≈ 22.3 µM). Regarding `COc1cc(OC)c(NC(=S)Nc2ccc(NC(=O)c3ccccc3C)cc2)cc1Br` [Example 829, N-{4-[3-(5-Bromo-2,4-dimethoxy-phenyl)-thioureido]-phenyl}-2-methyl-benzamide], in the test with VZV strain Ellen, the inhibition at 10 µg/mL worked out at 50% and the IC50 is over 15 µg/mL. Turning to `CC(C)(C)c1ccc(CNC(=S)Nc2ccc(NC(=O)c3ccccc3F)cc2)cc1` [Example 724], in the test on HSV-1, the “IC50 (ug/ml) HSV” value is over 10 µg/mL. Same read-out and setting: next, `CC(C)(NC(=S)Nc1ccc(NC(=O)c2ccccc2F)cc1)c1ccccc1` [Example 727]: over 10 µg/mL.

In the case of `CC(C)Cc1cc(NC(=S)Nc2ccc(NC(=O)c3ccccc3F)cc2)cc(C(F)(F)F)c1` [Example 578], in the test with VZV strain Ellen, the “IC50 (ug/ml) VZV” value is over 10 µg/mL. Consider `CC(NC(=S)Nc1ccc(NC(=O)c2ccccc2F)cc1)c1ccc(C(F)(F)F)cc1F` (stereo not drawn) [Example 1106], for which, in the test with VZV strain Ellen, the IC50 was over 7.5 µg/mL.

In the case of `CC(NC(=S)Nc1ccc(NC(=O)c2ccccc2C#N)cc1)c1ccc(F)cc1` (stereo not drawn) [Example 993, 2-Cyano-N-(4-{3-[1-(4-fluoro-phenyl)-ethyl]-thioureido}-phenyl)-benzamide], in the test on VZV strain Ellen, the IC50 turned out to be 2.7 µg/mL (≈ 6.45 µM). For `O=C(Nc1ccc(NC(=S)NCCc2ccccc2F)cc1)c1ccccc1F` [Example 721], the “IC50 (ug/ml) HSV” value with HSV-1 is over 10 µg/mL. Take `O=C(Nc1ccc(NC(=S)NCc2ccc(N3CCCCC3)c(C(F)(F)F)c2)cc1)c1ccccc1F` [Example 616]: the “IC50 (ug/ml) VZV” value in the test on VZV strain Ellen was over 10 µg/mL. Take `CC(C)(C)c1cccc(NC(=S)Nc2ccc(NC(=O)c3ccccc3F)cc2)c1` [Example 869, N-{4-[3-(3-tert-Butyl-phenyl)-thioureido]-phenyl}-2-fluoro-benzamide]: in the test with VZV strain Ellen, the inhibition at 10 µg/mL turned out to be 77% and the IC50 was 3 µg/mL (≈ 7.12 µM). Consider `COc1ccc(NC(=S)Nc2ccc(NC(=O)c3ccccc3OC)cc2)cc1Cl` [Example 818, N-{4-[3-(3-Chloro-4-methoxy-phenyl)-thioureido]-phenyl}-2-methoxy-benzamide], for which, in the test with VZV strain Ellen, the inhibition at 10 µg/mL came out at 32% and the IC50 was over 10 µg/mL. For `O=C(Nc1ccc(NC(=S)NCCOc2ccccc2)cc1)c1ccccc1F` [Example 625], in the test on VZV strain Ellen, the IC50 was found to be 4 µg/mL (≈ 9.77 µM). On the same count and under the same terms, for `O=C(Nc1ccc(NC(=S)NCc2cc(F)cc(C(F)(F)F)c2)cc1)c1ccccc1F` [Example 586] the value was over 10 µg/mL.

`COc1cc(OC)c(NC(=S)Nc2ccc(NC(=O)c3ccccc3-c3ccccc3)cc2)cc1Cl` [Example 182]: in the test on VZV strain Ellen, the “IC50 (ug/ml) VZV” value was over 10 µg/mL and the “% inhibition 10 ug/ml VZV” value turned out to be 32%. Turning to `CC(NC(=S)Nc1ccc(NC(=O)c2ccc3ncccc3c2)cc1)c1ccc(F)cc1` (stereo not drawn) [Example 990, Quinoline-6-carboxylic acid (4-{3-[1-(4-fluoro-phenyl)-ethyl]-thioureido}-phenyl)-amide], in the test with VZV strain Ellen, the IC50 amounted to 3.5 µg/mL (≈ 7.87 µM).

As for `CCC(C)Cc1cc(NC(=S)Nc2ccc(NC(=O)c3ccccc3F)cc2)cc(C(F)(F)F)c1` (stereo not drawn) [Example 577], in the test on VZV strain Ellen, the “IC50 (ug/ml) VZV” value was over 7.5 µg/mL. Same read-out and setting: for `O=C(Nc1ccc(NC(=S)NCc2cc(Cl)cc(Cl)c2)cc1)c1ccccc1F` [Example 583] the value was 10 µg/mL (≈ 22.3 µM). On the same count and under the same terms, for `CC(NC(=S)Nc1ccc(NC(=O)c2nccc3ccccc23)cc1)c1ccc(F)cc1` (stereo not drawn) [Example 1110] the value was 0.05 µg/mL (≈ 0.112 µM). As for `Cc1cc(C)cc(CNC(=S)Nc2ccc(NC(=O)c3ccccc3F)cc2)c1` [Example 725], the “IC50 (ug/ml) HSV” value in the test on HSV-1 was over 10 µg/mL. In the case of `O=C(Nc1ccc(NC(=S)NCc2ccc(F)c(C(F)(F)F)c2)cc1)c1ccccc1F` [Example 623], the IC50 in the test with VZV strain Ellen is over 10 µg/mL. On to `CSc1ccc(NC(=S)Nc2ccc(NC(=O)c3c(F)cccc3F)cc2)cc1Cl` [Example 848, N-{4-[3-(3-Chloro-4-methylsulfanyl-phenyl)-thioureido]-phenyl}-2,6-difluoro-benzamide], for which, in the test with VZV strain Ellen, the inhibition at 10 µg/mL worked out at 101% and the IC50 is 1.3 µg/mL (≈ 2.8 µM).
